Assay results from US11293019B2, “Chimeric genome engineering molecules and methods” (GFLAS Life Sciences, Inc., priority 2017, dated 2022).
Read-outs that look alike come from different tables or passages of the source.

Legend:
PCR dsDNA product = experiment: SpCas9 activity with 1 mM ZnSO4 / Mg2+ deficiency at different pH; assay type: biochemical; details: 1 mM ZnSO4, range of pH values
Protocol: For DNA (50 ng) NbFTa13_4 PCR product, 3 μl (150 ng) was used; for SpCas9-BPNLS (3.3 μg) 1/10 dilution (333 ng), 1.5 μl (0.5 μg) was used; for gRNA (1.5 μg) (NbFTa13_3/4-2), 1/10 dilution (150 ng), 3.5 μg (500 ng) was used; for pH (+1 mM ZnSO4, 2× cutsmart), 10 μl was used; for DW, to 20 μl was used.
For PCR dsDNA product, 150 ng was used; for SpCas9:BPNLS, 1 μg was used; for gRNA, 500 ng was used; for pH titration (100 mM NaCal, 50 mM Tris-HCl+1 mM ZnSO4), 10 ul was used, for DW, up to 20 μl was used.
Activity of SpCas9 and SpCas9-mungbean nuclease chimeric polypeptide was tested in the presence of 1 mM ZnSO4 at a range of pHs.

[1] = tested on: PCR product (901 bp SpyCas9; 1,431 bp FnCpf1); experiment: Inactivation of SpyCas9 and FnCpf1 by stop solution / 1 mM ZnSO4, in vitro cleavage time course; assay type: biochemical
human DHCR7 = experiment: Genome editing after zinc sulfate treatment, HEK293, T7E1 assay; assay type: cell-based; details: for % indels: +RNP
Protocol: (§1) The concentrations of 80 mM 160 mM of zinc sulfate were treated in HEK293 with Cas9 variants. HEK293 cells were harvested at 12 h, 24 h, and 48 h after zinc sulfate treatment. In terms of RNP treatment, HEK293 cells were harvested at 24 h, 36 h, and 60 h.
as §1
Cell culture. HEK 293 cells were maintained in DMEM media with 10% Fetal bovine serum FBS and P/S, at 37° C. in CO2 incubator. 150,000 cells were transferred to a 24 well plate in […] of the growth medium a day before transfection.
Transfection. For Cas9 variants transfection to the cells, purified each Cas9 variant protein was added to up to […] of Opti-MEM serum reduced medium in a micro tube, followed by addition of 120 ng guide RNA. The molar ratio of the guide RNA to Cas9 protein was kept nearly at 1.2:1 ratio(1). The mixture, then, mixed well by gentle tapping and incubated for 10 min at RT. In a separate tube. […] of Lipofectamin 3000 transfection reagent was added to […] of Opti-MEM and […] of the diluted transfection reagent was added to the guide RNA and Cas9 protein mixture, followed by incubation for 15 min at RT and […] mixture was added to the cells.
Genomic DNA extraction. […] Briefly cells were washed with PBS once and treated with T.E., followed by incubation at 37, for 5 min. 1.2 ml of growth media were added to cells to harvest cell and then, spin downed at RT, 250×g, for 5 min.
Amplification of genomic loci of human DHCR7. For amplification of genomic loci of human DHCR7, two different PCR primer pairs were used. […] Genomic DNA was amplified using specific primers and cleaned up using Wizard® SV gel and PCR clean-Up system. 200 ng PCR cleaned-up amplified DNA was added in a PCR-tube, followed by addition of […] of NEB buffer 2 with up to 9 ml of distilled water (D/W). The mixture was then re-annealed in a PCR machine using following condition: 98° C. for 5 min for denaturation; cooling down to 85° C. at −2° C./sec, in turn, to 25° C. at −0.1/sec and kept at 4° C., in order to prevent denaturation of heteroduplex formation of the amplified DNA. […] of T7E1 endonuclease was added to the mixture and incubated at 37° C. for 60 min.
Image Analysis. For analysis of gene modification, 2% gel was used image was obtained with and Alphaimager 2200 image analysis software was used for analysis. % indel was computed with following equation: 1−((1-fraction cleaved) ½)(2).

[2] = tested on: HEK293 cells and plant protoplasts; experiment: Summary of knock-out / knock-in performance (HEK293 cells and plant protoplasts); assay type: cell-based; details: in vitro and in vivo HEK293 cells
Source text: The apparent rates of mutations after the action of CRISPR genome editing tools are relatively low in vivo due to outperformance of error-free repair mechanisms. To enhance both the rate of indel mutation and HR recombination, genome editing tools were constructed by translational fusion of DNA modifying enzymes (DME), DNA binding protein (DBP), or terminal deoxyribonucleotidyl transferase (TdT) at either upstream or downstream of CRISPR genome editing enzymes. In one embodiment, a variant irreversibly deleted the DNA at the CRISPR enzyme-dependent double strand break sites in 5′->3′ direction, and the resulting modified ends with 3′-OH overhang can better serve HR repairs in presence of repair template. Disclosed herein are constructs that display functional enhancement of the CRISPR-Cas enzymes. […] Fifth, off-target effects in Cas9-RecJ embodied the similar efficiency to Cas9 off-targeting in whole genome sequencing and targeted deep sequencing. […] FIG. 74-FIG. 125 show said new genome editing fusion constructs, knock-out and knock-in efficiency and percent change in efficiency over a control.
The apparent rates of mutations after the action of CRISPR genome editing tools are relatively low in vivo due to outperformance of error-free repair mechanisms. […]

O=S(=O)([O-])[O-].[Zn+2] [ZnSO4, zinc sulfate]
abolished Cas9 activity (PCR dsDNA product): up to 90% | uncut dsDNAs not digested any more after ZnSO4 treatment [1]: 65% | % indels (human DHCR7; 80 ZnSO4 (mM) at 12 h, harvest 24 h): 2.9% | % indels (human DHCR7; 80 ZnSO4 (mM) at 12 h, harvest 60 h): 5.4% | % indels (human DHCR7; 160 ZnSO4 (mM) at 12 h, harvest 24 h): 1.8% | % indels (human DHCR7; 160 ZnSO4 (mM) at 12 h, harvest 36 h): 2.7% | % indels (human DHCR7; 160 ZnSO4 (mM) at 12 h, harvest 60 h): 5.8% | modified dsDNA detected via T7E1 assay (human DHCR7; 48 h hpt with RNP, 80 μM ZnSO4 at 24 hpt, direct): 12.62% | modified dsDNA detected via T7E1 assay (human DHCR7; 48 h hpt with RNP, 80 μM ZnSO4 at 24 hpt, media exchange): 9.86% | modified dsDNA detected via T7E1 assay (human DHCR7; 48 h hpt with RNP, 160 μM ZnSO4 at 24 hpt, direct): 3.68% | modified dsDNA detected via T7E1 assay (human DHCR7; 48 h hpt with RNP, 160 μM ZnSO4 at 24 hpt, media exchange): 4.96% | modified dsDNA detected via T7E1 assay (human DHCR7; 72 h hpt with RNP, 80 μM ZnSO4 at 24 hpt, direct): 2.8% | modified dsDNA detected via T7E1 assay (human DHCR7; 72 h hpt with RNP, 80 μM ZnSO4 at 24 hpt, media exchange): 9.32% | modified dsDNA detected via T7E1 assay (human DHCR7; 72 h hpt with RNP, 160 μM ZnSO4 at 24 hpt, direct): 1.87% | modified dsDNA detected via T7E1 assay (human DHCR7; 72 h hpt with RNP, 160 μM ZnSO4 at 24 hpt, media exchange): 1.41% | genome editing efficacy after zinc sulfate treatment (human DHCR7; HEK293 with Cas9 variants): reduced | quenching of Cas9 activity [2]: effectively quenched Cas9 activity | HEK293 cell survival (HEK293 cells; 0 to 120 mM zinc sulfate): allowed HEK293 cell to survive | HEK293 cell survival (HEK293 cells; 160 mM and 200 mM zinc sulfate): did not allow HEK293 live well without toxicity effect
